Data on eleven compounds can be found in patent US10131679B2, “Substituted dihydropyrrolopyrazole compound” (UBE INDUSTRIES, LTD., priority 2014, dated 2018).

Some results are limits rather than exact numbers.

Experiment [1] has as its system Human keratinocytes (NHEK-Neo Pooled). The experiment in a line: Human keratinocyte growth inhibition assay. The settings on record: 48 h, culture for 2 days, Cell Counting Kit-8. It counts as cell-based. The procedure, abridged: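 Neonatal pooled NHEK were seeded at 2.0×10^3 cells/well, cultured overnight, then exposed to compound in 0.1% final DMSO for 2 days. Growth was read by CCK-8 absorbance. IC50 was calculated from the concentration–inhibition data.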

In experiment [2] the test system is IL-6 production in rat adjuvant arthritis model. Nature of the experiment: IL-6 production inhibition test in rat adjuvant arthritis model. Conditions: single dose, left ankle, read-out: rate of inhibition of IL-6 production; for inhibition in vivo at 3 mg/kg: administration of 3 mg/kg; for inhibition in vivo at 10 mg/kg: administration of 10 mg/kg. In kind it is in vivo, LEW rats. Here is the method: IL-6 Production Inhibition Test in Rat Adjuvant Arthritis Model
A single-dose drug efficacy test using rat adjuvant arthritis models was carried out by modifying the method of Magari. K et al. (J. Rheumatol. 30 (10), 2193 (2003)).
LEW rats (female, supplied by Charles River Laboratories Japan, Inc.) were used as laboratory animals. An adjuvant prepared from heat-killed bacteria of Mycobacterium butyricum (264010 manufactured by Difco Laboratories Ltd.) and liquid paraffin (manufactured by Wako Pure Chemical Industries, Ltd., Code No. 128-04375) was subcutaneously administered as a phlogogenic material to the right hind leg footpads of the rats under inhalation anesthesia with isoflurane (manufactured by Wako Pure Chemical Industries, Ltd., Code No. 099-06571) to prepare arthritis models. Approximately 2 weeks later, left paw edema was measured with a paw volume meter (model TK-101CMP manufactured by Unicorn Co., Ltd.), and grouping was performed such that the average volume of left paw edema was equal among groups. A test compound or only a solvent was administered, after a certain time, they were sacrificed by exsanguination from the abdomens under isoflurane anesthesia, and the left ankles were collected, chopped, and frozen by using liquid nitrogen. The collected left ankle portions were disrupted in CRYOPress (model CP-100WP manufactured by Microtec Co., Ltd.), then supplemented with a buffer solution, shaken overnight at 4° C., and then centrifuged to collected a supernatant. The preparation of the buffer solution was performed by mixing a Tris buffer solution (pH 7.4), sodium chloride (NaCl), phenyl methyl sulfonyl fluoride (PMSF), Triton X-100, EDTA-free complete tablets (manufactured by F. Hoffmann-La Roche, Ltd., REF. 11 873 580 001), and Otsuka distilled water (manufactured by Otsuka Pharmaceutical Co., Ltd., product No. 1323). IL-6 in the collected supernatant was measured by using a sandwich ELISA kit (manufactured by R&D Systems, Inc., Catalog No. S6050).
The IL-6 content of each sample was calculated from the calibration curve of Standard IL-6 included in the kit. When the amount of IL-6 produced in the solvent administration control group was defined as 100%, the rate of inhibition of IL-6 production (%) at each dose of the test compound was calculated.

For experiment [3], the system named is IL-17 production in human PBMC-derived T cells. The experiment in a line: Human PBMC various-stimulant cocktail-induced IL-17 production inhibition test. It counts as cell-based. Conditions: 120 h; human T-cell suspension from PBMC, cocktail of various stimulants, incubation for 5 days, ELISA. An excerpt:
Human PBMC Various-Stimulant Cocktail-Induced IL-17 Production Inhibition Test
PBMC was separated and collected by using Ficoll-Paque (17-1440-02 manufactured by GE Healthcare Japan Corp.) from blood collected from healthy human adult in the presence of heparin. The collected PBMC was further cultured in a flask for a certain time, and then, non-adherent cells in the supernatant were collected and used as a T-cell suspension. RPMI1640 medium (manufactured by GIBCO/Thermo Fisher Scientific, Inc., REF. 11875), which is containing 10% FBS (manufactured by GIBCO/Thermo Fisher Scientific, Inc., REF. 10082), 1% penicillin/streptomycin/amphotericin B (manufactured by GIBCO/Thermo Fisher Scientific, Inc., REF. 15240-096), 1% nonessential amino acids (manufactured by GIBCO/Thermo Fisher Scientific, Inc., REF. 11140-050), and 1% pyruvic acid (manufactured by GIBCO/Thermo Fisher Scientific, Inc., REF. 11140) and containing a test compound dissolved in DMSO, 2 μg/mL (final concentration) CD28 antibody (manufactured by BioLegend, Inc., Cat. No. 302914), 10 μg/mL (final concentration) human IFN-γ antibody (manufactured by BD Biosciences, Cat. No. 554698), 10 μg/mL (final concentration) human IL-4 antibody (manufactured by BD Biosciences, Cat. No. 554481), 20 ng/mL (final concentration) human IL-6 (manufactured by BioLegend, Inc., Cat. No. 570802), 10 ng/mL (final concentration) human IL-23 (manufactured by BioLegend, Inc., Cat. No. 574102), 10 ng/mL (final concentration) human IL-1(3 (manufactured by PeproTech Inc., Cat. No. 200-01B), and 10 ng/mL (final concentration) human TGF-13 (manufactured by BioLegend, Inc., Cat. No. 580702), was added at 100 μL/well to T cell Activation Plate Anti-Human CD3 96-well plate (manufactured by Corning Inc., REF. 354725). Subsequently, 100 μL of a T-cell suspension adjusted to 2×10^5 cells/mL was added to each well (final DMSO concentration: 0.1%). Only DMSO was added to wells in the absence of the test compound. After incubation for 5 days in a carbon dioxide incubator, the culture supernatant was collected and stored at −20° C. until IL-17 content measurement.
In the IL-17 content measurement in the culture supernatant, a sandwich ELISA kit (Quantikine Human IL-17, manufactured by R&D Systems, Inc.) was used. The IL-17 content of each sample was calculated from the calibration curve of Standard IL-17 included in the kit. When the amount of IL-17 produced by the cocktail of various stimulants in the case of the addition of only DMSO was defined as 100%, the rate of inhibition of IL-17 production at each concentration of the test compound was calculated. The concentration of the test compound necessary for inhibiting 50% of IL-17 production (IC50 value) was calculated from the concentration of the added test compound and the rate of inhibition of IL-17 production by the test compound by using EXSUS (version 8.0.0 or version 8.0.1, manufactured by CAC Exicare Corp.).

`COC[C@@H](NC(=O)N1Cc2c(NC(=O)C3([Si](C)(C)C)CCC3)n[nH]c2C1(C)C)c1ccccc1` [IV-123, (S)—N-(2-Methoxy-1-phenylethyl)-6,6-dimethyl-3-[1-(trimethylsilyl)cyclobutanecarboxamido]-4,6-dihydropyrrolo[3,4-c]pyrazole-5(1H)-carboxamide] had an IC50 in experiment [1] of at most 0.5 µM. For the same compound, in experiment [2], the inhibition in vivo at 3 mg/kg is at least 50%. Consider `CC1(C)c2[nH]nc(NC(=O)C3([Si](C)(C)C)CCC3)c2CN1C(=O)C(CO)c1ccccc1` (stereo not shown) [IV-632, N-[5-(3-Hydroxy-2-phenylpropanoyl)-6,6-dimethyl-1,4,5,6-tetrahydropyrrolo[3,4-c]pyrazol-3-yl]-1-(trimethylsilyl)cyclobutanecarboxamide], for which, in experiment [2], the inhibition in vivo at 3 mg/kg is at least 50%. `CC1(C)c2[nH]nc(NC(=O)C3([Si](C)(C)C)CCC3)c2CN1C(=O)O[C@H](CO)c1ccccc1` [IV-2, (S)-2-Hydroxy-1-phenylethyl 6,6-dimethyl-3-[1-(trimethylsilyl)cyclobutanecarboxamido]-4,6-dihydropyrrolo[3,4-c]pyrazole-5(1H)-carboxylate]: the inhibition in vivo at 10 mg/kg in experiment [2] was at least 50%.

In turn, `CCOC[C@@H](NC(=O)N1Cc2c(NC(=O)C3([Si](C)(C)C)CCC3)n[nH]c2C1(C)C)c1ccccc1` [IV-139, (S)—N-(2-Ethoxy-1-phenylethyl)-6,6-dimethyl-3-[1-(trimethylsilyl)cyclobutanecarboxamido]-4,6-dihydropyrrolo[3,4-c]pyrazole-5(1H)-carboxamide] gave an IC50 in experiment [1] of at most 0.5 µM. In experiment [2], the inhibition in vivo at 3 mg/kg was at least 50%. On to `CC(C)(O)C[C@@H](NC(=O)N1Cc2c(NC(=O)C3([Si](C)(C)C)CCC3)n[nH]c2C1(C)C)c1ccccc1` [IV-299, (R)—N-(3-Hydroxy-3-methyl-1-phenylbutyl)-6,6-dimethyl-3-[1-(trimethylsilyl)cyclobutanecarboxamido]-4,6-dihydropyrrolo[3,4-c]pyrazole-5(1H)-carboxamide], for which the IC50 in experiment [3] was at most 0.05 µM; in experiment [1], at most 0.5 µM. In experiment [2], the inhibition in vivo at 3 mg/kg is at least 50%. As to `CN(C(=O)N1Cc2c(NC(=O)C3([Si](C)(C)C)CCC3)n[nH]c2C1(C)C)[C@H](CO)c1ccccc1` [IV-119, (S)—N-(2-Hydroxy-1-phenylethyl)-N,6,6-trimethyl-3-[1-(trimethylsilyl)cyclobutanecarboxamido]-4,6-dihydropyrrolo[3,4-c]pyrazole-5(1H)-carboxamide], the inhibition in vivo at 10 mg/kg in experiment [2] was at least 50%. Same read-out and setting: then `CC1(C)c2[nH]nc(NC(=O)C(C)(C)[Si](C)(C)C)c2CN1C(=O)N[C@H](CO)c1ccccc1` [II-114, (S)—N-(2-Hydroxy-1-phenylethyl)-6,6-dimethyl-3-[2-methyl-2-(trimethylsilyl)propanamido]-4,6-dihydropyrrolo[3,4-c]pyrazole-5(1H)-carboxamide], with at least 50%. Take `CC(C)(CO)C(NC(=O)N1Cc2c(NC(=O)C3([Si](C)(C)C)CCC3)n[nH]c2C1(C)C)c1ccccc1` (racemic) [IV-354, N-(3-Hydroxy-2,2-dimethyl-1-phenylpropyl)-6,6-dimethyl-3-[1-(trimethylsilyl)cyclobutanecarboxamido]-4,6-dihydropyrrolo[3,4-c]pyrazole-5(1H)-carboxamide]: the IC50 is at most 0.05 µM in experiment [3] and at most 0.5 µM in experiment [1].

Compound `CC(C)(O)[C@@H](NC(=O)N1Cc2c(NC(=O)C3([Si](C)(C)C)CCC3)n[nH]c2C1(C)C)c1ccccc1` [IV-171, (S)—N-(2-Hydroxy-2-methyl-1-phenylpropyl)-6,6-dimethyl-3-[1-(trimethylsilyl)cyclobutanecarboxamido]-4,6-dihydropyrrolo[3,4-c]pyrazole-5(1H)-carboxamide] had an IC50 in experiment [1] of at most 0.5 µM. Moreover, in experiment [2], the inhibition in vivo at 10 mg/kg is at least 50%. `CC1(C)c2[nH]nc(NC(=O)C3([Si](C)(C)C)CCC3)c2CN1C(=O)N[C@H](CCO)c1ccccc1` [IV-227, (R)—N-(3-Hydroxy-1-phenylpropyl)-6,6-dimethyl-3-[1-(trimethylsilyl)cyclobutanecarboxamido]-4,6-dihydropyrrolo[3,4-c]pyrazole-5(1H)-carboxamide]: in experiment [1], the IC50 was at most 0.5 µM. Also, the inhibition in vivo at 3 mg/kg in experiment [2] was at least 50%. As for `CC1(C)c2[nH]nc(NC(=O)C3([Si](C)(C)C)CCC3)c2CN1C(=O)[C@H](OC(F)F)c1ccccc1` [IV-1180, (R)—N-{5-[2-(Difluoromethoxy)-2-phenylacetyl]-6,6-dimethyl-1,4,5,6-tetrahydropyrrolo[3,4-c]pyrazol-3-yl}-1-(trimethylsilyl)cyclobutanecarboxamide], the IC50 in experiment [3] was at most 0.05 µM; in experiment [1], at most 0.5 µM.
